In patent US20250134902A1, “DRUG REPURPOSING FOR DELAYED TREATMENT OF ISCHEMIC STROKE” (UNIVESRITY OF NORTH TEXAS HEALTH SCIENCE CENTER, priority 2022, published 2025):
Like-named read-outs stand apart in the source and are kept apart here. Blank lines part the entries; values can stand above or below the compound they belong to.

Columns and labels:
rat blood = test: Clotting (streak) assay of thrombotic potential
Method: Clotting assays. Thrombotic potential was assessed with trunk blood from donor rats using a protocol modified from Kim et al. (Kim et al., 2010). Oxeladin was compared to whole blood with or without the anticoagulant benzamidine and several other S1R ligands at doses 10× greater than those that stimulate the release of BDNF (Dalwadi et al., 2022; Dalwadi et al., 2017). Blood was rapidly collected into chilled, pre-weighed plastic tubes containing a known quality of EDTA disodium salt (>3.7 mM) electrostatically-coated onto the tube wall. Blood was prevented from coagulating by gently swirling the chilled EDTA-coated tube. The tube was weighed and the volume of collected blood calculated in order to compute the exact concentration of EDTA in the uncoagulated blood sample allowing us to determine which concentration of calcium to add back into the blood to initiate coagulation. Uncoagulated blood samples were stored chilled. The following was be dispensed into NUNC™ MICROWELL™ MiniTrays: 8 μL/well of normal saline containing a concentration of calcium 1.2 mM higher than that of the concentration of EDTA in the blood sample, 1 μL/well of oxeladin, 3 mM benzamidine anticoagulant positive control, or untreated or vehicle negative controls, and 1 μL/well of (EDTA-treated) uncoagulated rat blood. Plates were tilted at a 45° angle at 5, 15, 30, 45 and 60 minutes to observe coagulation (i.e., no streaking) and compared to the controls. Each triplicate well was scored by a treatment-blinded observer as Yes (coagulation, no streaking) or No (no coagulation, streaking). The experiment was repeated with two separate donor rats.
Referring to FIG. 5, the effect on thrombotic activity of test drugs, benzamidine anticoagulant positive control, or untreated or vehicle negative controls on whole blood from donor rats was assessed by tilting treated blood samples at a […] to observe coagulation (i.e., no streaking) between […] (top panel). Blood coagulation was represented by a value between 1 (no streaking, coagulation) and 0 (streaking, less or no coagulation), and values were assigned for each test drug, benzamidine, and untreated and vehicle controls (bottom panel). Quantitative results from these clotting assays, including coagulation half-life, are summarized below in Table 5.

neuronal MN9D cell line = test: BDNF secretion via in situ ELISA; format: cell-based; settings: MN9D cells; for Efficacy of BDNF secretion: 24 hrs, normalized to maximal response of 10 μM 4-PPBP, mean ± SEM, asterisk = significantly different from 4-PPBP
From the text: Measuring BDNF secretion via in situ ELISA. […] The in situ ELISA improves on traditional ELISA by seeding BDNF-secreting cells directly into the wells pre-coated with an anti-BDNF primary antibody. BDNF secreted by these cells is immediately captured by the primary antibody, drastically increasing the sensitivity and reproducibility of the ELISA assay. Intact cells are removed […] the addition of the secondary and tertiary antibodies. The amount of BDNF secreted from the neuronal MN9D cells was quantified using an in situ ELISA assay developed using the BDNF EMAX® ImmunoAssay kit (Cat. No. G7611, Promega, Madison, WI). Briefly, a NUNC™ MAXISORP™ flat-bottom, polystyrene, 96-well immunoplate was coated for 48 hrs at 4° C. with an anti-BDNF monoclonal antibody diluted 1:1000 v/v in carbonate buffer containing 25 mM sodium bicarbonate and 25 mM sodium carbonate, pH 9.7. Unbound antibody was removed by washing 5 times with 150 μL of TBST buffer (20 mM Tris-HCl, pH7.6, 150 mM NaCl, and 0.05% (v/v) TWEEN® 20), before blocking non-specific sites first with blocking buffer for 1 hr and then with culture medium for 2 hrs. Cells were seeded at 35,000 cells per well and incubated overnight at 37° C. in a humidified CO2 incubator. The following day, the wells were replaced with fresh culture media containing either experimental compounds or vehicle controls, then incubated for an additional 24 hours. In addition, on the same plate, but in separate wells, BDNF standards were added ranging in concentration from 15.6-250 pg/mL. After 24 hrs incubation with experimental compounds, the media was aspirated and 100 μL of Dulbecco's phosphate saline (D-PBS without Ca^2+ and Mg^2+ supplemented with 5 mM EDTA) was added to each well and incubated for 15 min at 37° C. to promote cell lifting. Cells were then detached from the bottom of wells by triturating in the center and around the edges of the well. After removing all cell debris, the wells were rinsed five times with 150 μL of TBST. The plate was then incubated with 1:500 v/v diluted polyclonal anti-human BDNF antibody for 2 hrs at room temperature. This antibody was removed, and wells were washed five times with 150 μL of TBST, before incubating with 1:200 v/v diluted polyclonal Anti-IgY HRP conjugate for 2 hrs at room temperature. Wells were then washed five times with 150 μL of TBST and the remaining specifically bound polyclonal antibody was detected with the 50 μL colorimetric HRP substrate 3,3′,5,5′-Tetramethylbenzidine (TMB). The reaction was terminated with 50 μL of 1 M HCl and the color intensity was quantified by measuring the absorbance at 450 nm using a FLEXSTATION® 3 plate reader (Molecular Devices, Sunnyvale, CA). […] A one-way ANOVA with a Bonferroni multiple comparisons post-hoc analysis (P<0.05) was applied to determine significant differences between groups.
Further, BDNF secreted from MN9D cells can be detected 24 hours after treatment with S1R ligand, whereas BDNF secreted from the B104 cell line takes 7 days to be detected (Fujimoto, et al., 2012).
An in situ ELISA approach was utilized because of its improved sensitivity related to its rapid capture of secreted BDNF (Balkowiec & Katz, 2000; Dalwadi, et al., 2017). […] Values are averages of 2-10 experiments±SEM, and each experiment was performed in triplicate. Statistical significance at P<0.05 was determined by ANOVA followed by a Bonferroni's post-hoc test and are marked with an asterisk.

[1] = target: T1, human Sigma-1 receptor (S1R) (Homo sapiens, UniProt Q99720); test: Radioligand competition binding at Sigma-1 receptor ([3H]-(+)-pentazocine, MCF-7-hS1R)
T1 construct: expressed in transfected cells
Method: Measuring receptor density with radioligand binding.
Measuring the ligand affinities at SIR and S2R receptors by radioligand binding. […] Binding conditions were the same as described previously for the S1R (Schetz, et al., 2007): binding buffer (Tris 50 mM, pH=8.1 at 37° C.), ice-cold wash buffer (Tris 10 mM, pH=8.1 at 0-2° C.), and incubation time (3 hrs at 37° C.) with shaking. Non-specific binding for the S1R and S2R was determined in the presence of 5 μM BD1063 and […] haloperidol, respectively. Following incubation, receptors were collected via rapid filtration through GF/C filters (Brandel, Gaithersburg, MD) followed by washing three times with 3 mL of ice-cold wash buffer. Dried filters were transferred to vials filled with 3.5 ml of scintillation fluid, and the radioactivity was quantified on a liquid scintillation analyzer (TRICARB® 2800TR) from Perkin Elmer (Saint Louis, MO). Mean values from duplicate or triplicate determinations are reported along with their associated standard error of the mean (SEM). Ki values were calculated from IC50 values using the Cheng-Prusoff equation. The concentration of membrane protein was determined using a PIERCE® BCA Protein Assay kit (Life Technologies, Grand Island, NY) following the manufacturer's protocol.
Referring to FIG. 1, the selectivity of potential S1R ligands over S2R was empirically evaluated. Human MCF-7 cells were used as the source of the S2R because these cells express the endogenous S2R (Vilner, John, et al., 1995; Wu & Bowen, 2008) but lack detectable levels of the S1R, allowing unambiguous detection of S2R activity in untransfected cells (Schetz, et al., 2007). MCF-7 cells stably expressing the cloned human S1R were used as the source of S1R.

[2] = displacement of 0.5 nM [3H]-(+)-pentazocine, MCF-7 cells expressing human S1R, average of 2-3 experiments ± SEM, read-out: S1R affinity (Ki)

T1 sequence (Q99720 whole entry): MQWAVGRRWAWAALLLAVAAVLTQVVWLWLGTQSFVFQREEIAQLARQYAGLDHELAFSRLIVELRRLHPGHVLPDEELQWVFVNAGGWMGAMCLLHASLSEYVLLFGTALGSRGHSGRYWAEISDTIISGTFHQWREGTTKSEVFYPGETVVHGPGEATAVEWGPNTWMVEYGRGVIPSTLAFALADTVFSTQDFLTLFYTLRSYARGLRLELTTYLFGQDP

- Coagulation Half-Life (λ1/2 ± SD) (rat blood; rat): 19 ± 16 min
SMILES: CCC(C/C=C/c1ccccc1)(c1ccccc1)N(C)CC1CC1 (single isomer, unassigned; (+)) [(+)-igmesine]
- Efficacy of BDNF secretion (neuronal MN9D cell line; 10 μM): 0.42 ± 0.03

SMILES: c1ccc(CCCCN2CCC(c3ccccc3)CC2)cc1 [4-PPBP]
- Coagulation Half-Life (λ1/2 ± SD) (rat blood; 100 μM, rat blood): 11 ± 6 min
- Efficacy of BDNF secretion (neuronal MN9D cell line; 10 μM): 1
- BDNF secreted, maximal stimulation (neuronal MN9D cell line; 10 μM, averaged ± SEM, n=3-10, baseline 75.4±6.9): 128.6 ± 12.8 pg/mL

SMILES: CN1CCN(CCc2ccc(Cl)c(Cl)c2)CC1 [BD1063]
- reversal of S1R agonist-induced BDNF secretion (neuronal MN9D cell line; 15 nM antagonist): reversed

- Coagulation Half-Life (λ1/2 ± SD) (rat blood; 3000 μM, rat blood, positive control): >1,440 minutes
- Coagulation Half-Life (λ1/2 ± SD) (rat blood; 3000 μM, rat blood, positive control, listed as positive control): > 1,440 minutes
SMILES: N=C(N)c1ccccc1 [Benzamidine]

SMILES: CCC(C(=O)OCCOCCN(CC)CC)c1ccccc1 (stereo not drawn) [Butamirate]
- selective for S1R over S2R [1]: 10 fold
- Ki [1, 2]: 17.2 ± 1.7 nM
- S2R/S1R ratio (Ki S2R/Ki S1R) ([1]; selectivity for S1R over S2R): 10
- stimulation of BDNF secretion (neuronal MN9D cell line; 10 μM): With the exception of butamirate, all compounds were able to stimulate BDNF release

SMILES: CCN(CC)CCOCCOC(=O)C1(c2ccccc2)CCCC1 [Carbetapentane]
- Ki [1, 2]: 19.8 ± 2.3 nM
- Coagulation Half-Life (λ1/2 ± SD) (rat blood; rat): 23 ± 18 min
- Efficacy of BDNF secretion (neuronal MN9D cell line; 10 μM): 0.73 ± 0.05

SMILES: OC(CCCN1CCC(O)(c2ccc(Cl)cc2)CC1)c1ccc(F)cc1 (stereo not drawn) [Haloperidol Metabolite II]
- Coagulation Half-Life (λ1/2 ± SD) (rat blood; 100 μM, rat blood): 14 ± 11 min

- Coagulation Half-Life (λ1/2 ± SD) (rat blood; rat): 11 ± 6 min
SMILES: Cc1c(C2CCN(CCc3ccccc3)CC2)noc1-c1ccc(Cl)cc1 [L-741, 742]

SMILES: Clc1ccc(N2CCN(Cc3c[nH]c4ncccc34)CC2)cc1 [L-745, 870]
- Coagulation Half-Life (λ1/2 ± SD) (rat blood; rat): 11 ± 6 min

SMILES: O=C(OCCN1CCOCC1)C1(c2ccccc2)CCCCC1 [PRE-084]
- stimulation of BDNF secretion (neuronal MN9D cell line; 10 μM): failed to stimulate BDNF secretion

- selective for S1R over S2R [1]: 5 fold
- Ki ([1]; receptor not given, S1R implied, read-out: affinity): 157 nM
- effect on thrombosis in blood (rat blood): do not alter thrombosis
SMILES: CC(CN1c2ccccc2Sc2ccccc21)N(C)C (stereo not drawn) [Promethazine]
- Efficacy of BDNF secretion (neuronal MN9D cell line; 10 μM): 1.09 ± 0.34

- Coagulation Half-Life (λ1/2 ± SD) (rat blood; rat): 11 ± 6 min
SMILES: COc1ccc(CCN2CCN(CCCc3ccccc3)CC2)cc1OC [SA4503]
